# Source: ChEMBL document CHEMBL2321683, “Discovery of potent, selective and orally bioavailable imidazo[1,5-a]pyrazine derived ACK1 inhibitors” (Bioorg Med Chem Lett, 2013)
# Experiments:
# Activated CDC42 kinase 1 [1] = target: T1, Activated CDC42 kinase 1 (Homo sapiens, UniProt Q07912)
# Target sequence in this assay (Q07912 whole entry): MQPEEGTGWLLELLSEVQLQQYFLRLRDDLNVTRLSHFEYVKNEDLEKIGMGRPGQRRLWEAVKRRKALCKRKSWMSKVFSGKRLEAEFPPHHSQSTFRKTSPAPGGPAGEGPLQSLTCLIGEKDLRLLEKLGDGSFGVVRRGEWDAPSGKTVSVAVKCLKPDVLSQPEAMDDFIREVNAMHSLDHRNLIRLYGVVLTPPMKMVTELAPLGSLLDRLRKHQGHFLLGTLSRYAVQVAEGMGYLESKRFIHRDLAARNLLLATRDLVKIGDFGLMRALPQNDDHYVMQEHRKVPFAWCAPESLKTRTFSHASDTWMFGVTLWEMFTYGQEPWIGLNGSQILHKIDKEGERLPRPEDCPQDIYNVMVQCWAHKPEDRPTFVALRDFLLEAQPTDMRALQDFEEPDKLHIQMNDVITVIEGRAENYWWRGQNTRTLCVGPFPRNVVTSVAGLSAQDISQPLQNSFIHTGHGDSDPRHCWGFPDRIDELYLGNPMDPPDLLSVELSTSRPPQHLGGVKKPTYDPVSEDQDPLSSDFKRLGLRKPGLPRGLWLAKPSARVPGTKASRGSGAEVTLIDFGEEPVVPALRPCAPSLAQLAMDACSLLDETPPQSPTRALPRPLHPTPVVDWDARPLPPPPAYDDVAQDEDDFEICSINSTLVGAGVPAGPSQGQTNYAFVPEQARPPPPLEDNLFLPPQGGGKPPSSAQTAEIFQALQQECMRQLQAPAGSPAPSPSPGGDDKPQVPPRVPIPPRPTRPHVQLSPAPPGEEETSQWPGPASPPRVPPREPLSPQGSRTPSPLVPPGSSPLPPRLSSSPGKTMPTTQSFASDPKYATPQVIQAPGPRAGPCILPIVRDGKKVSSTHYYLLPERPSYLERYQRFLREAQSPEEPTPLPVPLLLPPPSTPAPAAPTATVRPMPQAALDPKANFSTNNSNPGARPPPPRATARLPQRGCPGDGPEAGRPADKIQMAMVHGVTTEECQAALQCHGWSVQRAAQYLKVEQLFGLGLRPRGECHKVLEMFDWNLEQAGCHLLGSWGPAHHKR
# [2] = Clearance in mouse at 2 mg/kg, iv; type: ADME, organism-based; design: dose 2 mg/kg, route intravenous; conditions: in vivo
# [3] = Volume of distribution at steady state in mouse at 2 mg/kg, iv; type: ADME, organism-based; design: dose 2 mg/kg, route intravenous; conditions: in vivo, read-out: Vdss
# [4] = Half life in mouse at 20 mg/kg, po; type: ADME, organism-based; design: dose 20 mg/kg, route oral; conditions: in vivo
# [5] = (§1) Oral bioavailability in mouse at 20 mg/kg; type: ADME, organism-based; conditions: in vivo
# [6] = AUC in mouse at 20 mg/kg, po; type: ADME, organism-based; design: dose 20 mg/kg, route oral; conditions: plasma
# [7] = Cmax in mouse at 20 mg/kg, po; type: ADME, organism-based; design: dose 20 mg/kg, route oral; conditions: in vivo
# Activated CDC42 kinase 1 [8] = target: T1, Activated CDC42 kinase 1; remark: listed apart in the source
# Target sequence in this assay (Q07912 whole entry): as above
# Mus musculus = assay: as §1; type: ADME, organism-based; conditions: in vivo
# [9] = target: T2, Tyrosine-protein kinase TXK (Homo sapiens) (UniProt P42681); assay: Inhibition of TXK (unknown origin) at 1 uM
# T2 sequence (whole entry): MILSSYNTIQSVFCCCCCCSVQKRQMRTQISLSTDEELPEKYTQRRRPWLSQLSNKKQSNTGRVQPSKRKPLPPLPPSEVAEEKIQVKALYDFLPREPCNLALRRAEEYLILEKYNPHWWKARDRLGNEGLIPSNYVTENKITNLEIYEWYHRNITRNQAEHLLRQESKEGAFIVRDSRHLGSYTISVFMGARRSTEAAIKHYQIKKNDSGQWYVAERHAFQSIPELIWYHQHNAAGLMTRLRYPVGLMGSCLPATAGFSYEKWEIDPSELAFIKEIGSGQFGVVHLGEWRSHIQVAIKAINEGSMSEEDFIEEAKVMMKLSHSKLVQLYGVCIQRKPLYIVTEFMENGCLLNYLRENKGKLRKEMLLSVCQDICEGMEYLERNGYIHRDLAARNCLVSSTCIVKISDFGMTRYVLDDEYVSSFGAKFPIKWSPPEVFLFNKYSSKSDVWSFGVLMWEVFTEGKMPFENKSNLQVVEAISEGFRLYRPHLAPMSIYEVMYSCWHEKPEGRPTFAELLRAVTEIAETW
# [10] = target: Tyrosine-protein kinase Yes (Homo sapiens) (UniProt P07947); assay: Inhibition of YES (unknown origin) at 1 uM
# Tyrosine-protein kinase Yes (Homo sapiens), sequence (P07947 2-543 limits assumed): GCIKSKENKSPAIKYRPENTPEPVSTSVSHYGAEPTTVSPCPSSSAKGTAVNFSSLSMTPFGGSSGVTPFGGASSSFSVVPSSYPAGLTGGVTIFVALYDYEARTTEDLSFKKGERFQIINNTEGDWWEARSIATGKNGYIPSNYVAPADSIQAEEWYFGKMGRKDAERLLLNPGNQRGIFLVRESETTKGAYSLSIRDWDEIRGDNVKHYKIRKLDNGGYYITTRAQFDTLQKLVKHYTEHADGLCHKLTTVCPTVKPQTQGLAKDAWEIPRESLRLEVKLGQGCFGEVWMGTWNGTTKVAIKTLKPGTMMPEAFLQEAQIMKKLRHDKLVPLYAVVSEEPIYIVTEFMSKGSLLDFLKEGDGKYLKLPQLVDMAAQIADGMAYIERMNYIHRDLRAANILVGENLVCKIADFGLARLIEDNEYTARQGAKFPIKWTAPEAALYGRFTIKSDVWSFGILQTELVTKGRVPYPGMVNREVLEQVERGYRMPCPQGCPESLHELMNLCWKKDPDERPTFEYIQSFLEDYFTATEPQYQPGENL
# [11] = target: Tyrosine-protein kinase Srms (Homo sapiens) (UniProt Q9H3Y6); assay: Inhibition of SRMS (unknown origin) at 1 uM
# [12] = target: T3, Tyrosine-protein kinase Tec (Homo sapiens) (UniProt P42680); assay: Inhibition of TEC (unknown origin) at 1 uM
# T3 sequence (whole entry): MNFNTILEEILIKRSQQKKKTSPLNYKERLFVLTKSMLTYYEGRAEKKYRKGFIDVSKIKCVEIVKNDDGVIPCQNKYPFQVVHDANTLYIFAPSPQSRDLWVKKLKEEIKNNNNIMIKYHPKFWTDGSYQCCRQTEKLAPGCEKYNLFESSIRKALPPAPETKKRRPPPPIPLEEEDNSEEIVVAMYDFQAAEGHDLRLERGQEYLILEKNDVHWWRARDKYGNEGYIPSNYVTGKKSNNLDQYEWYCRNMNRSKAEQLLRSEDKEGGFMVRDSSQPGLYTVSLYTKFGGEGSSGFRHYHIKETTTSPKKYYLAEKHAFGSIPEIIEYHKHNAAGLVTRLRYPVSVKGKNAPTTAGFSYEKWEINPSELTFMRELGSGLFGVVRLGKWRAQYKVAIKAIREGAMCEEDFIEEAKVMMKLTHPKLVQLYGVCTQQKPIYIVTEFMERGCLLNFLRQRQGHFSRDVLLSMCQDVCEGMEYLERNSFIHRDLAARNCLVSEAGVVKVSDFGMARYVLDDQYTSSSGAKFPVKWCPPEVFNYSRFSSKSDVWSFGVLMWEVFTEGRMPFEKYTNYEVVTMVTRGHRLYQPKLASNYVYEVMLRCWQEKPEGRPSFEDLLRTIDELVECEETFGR
# [13] = target: Proto-oncogene tyrosine-protein kinase Src (Homo sapiens) (UniProt P12931); assay: Inhibition of SRC (unknown origin) at 1 uM
# [14] = target: Tyrosine-protein kinase Lyn (Homo sapiens) (UniProt P07948); assay: Inhibition of LYNB (unknown origin) at 1 uM
# Tyrosine-protein kinase Lyn (Homo sapiens), sequence (P07948 2-512 limits assumed): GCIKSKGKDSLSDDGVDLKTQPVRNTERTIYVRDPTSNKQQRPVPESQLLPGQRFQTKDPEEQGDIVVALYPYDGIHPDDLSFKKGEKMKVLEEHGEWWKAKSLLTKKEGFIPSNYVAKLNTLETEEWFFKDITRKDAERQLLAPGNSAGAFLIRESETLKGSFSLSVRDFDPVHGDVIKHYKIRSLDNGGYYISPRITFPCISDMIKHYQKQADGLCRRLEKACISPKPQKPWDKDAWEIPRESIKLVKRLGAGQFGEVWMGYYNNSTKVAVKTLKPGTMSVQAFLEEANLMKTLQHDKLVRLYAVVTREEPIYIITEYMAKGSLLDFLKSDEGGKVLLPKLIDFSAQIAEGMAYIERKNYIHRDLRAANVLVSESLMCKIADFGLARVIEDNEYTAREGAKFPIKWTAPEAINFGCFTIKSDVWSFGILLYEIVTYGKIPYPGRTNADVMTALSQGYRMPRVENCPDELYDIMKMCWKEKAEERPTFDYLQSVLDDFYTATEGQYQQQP
# [15] = target: Tyrosine-protein kinase Lck (Homo sapiens) (UniProt P06239); assay: Inhibition of LCK (unknown origin) at 1 uM
# [16] = target: Tyrosine-protein kinase HCK (Homo sapiens) (UniProt P08631); assay: Inhibition of HCK (unknown origin) at 1 uM
# Tyrosine-protein kinase HCK (Homo sapiens), sequence (P08631 2-526 limits assumed): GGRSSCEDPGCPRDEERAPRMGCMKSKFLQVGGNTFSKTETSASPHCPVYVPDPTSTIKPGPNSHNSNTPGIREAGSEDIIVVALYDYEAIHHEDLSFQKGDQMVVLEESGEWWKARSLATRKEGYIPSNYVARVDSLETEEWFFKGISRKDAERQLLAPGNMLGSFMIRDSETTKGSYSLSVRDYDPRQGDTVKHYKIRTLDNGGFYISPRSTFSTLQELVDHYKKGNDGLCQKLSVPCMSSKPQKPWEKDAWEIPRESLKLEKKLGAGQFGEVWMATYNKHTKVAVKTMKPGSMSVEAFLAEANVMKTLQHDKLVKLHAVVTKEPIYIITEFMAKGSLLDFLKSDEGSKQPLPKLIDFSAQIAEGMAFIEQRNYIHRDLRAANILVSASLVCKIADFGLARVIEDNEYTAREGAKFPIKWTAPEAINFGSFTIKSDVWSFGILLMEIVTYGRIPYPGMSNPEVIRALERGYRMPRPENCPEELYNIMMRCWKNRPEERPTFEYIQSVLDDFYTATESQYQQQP
# [17] = target: Tyrosine-protein kinase Fyn (Homo sapiens) (UniProt P06241); assay: Inhibition of FYN (unknown origin) at 1 uM
# Tyrosine-protein kinase Fyn (Homo sapiens), sequence (P06241 2-537 limits assumed): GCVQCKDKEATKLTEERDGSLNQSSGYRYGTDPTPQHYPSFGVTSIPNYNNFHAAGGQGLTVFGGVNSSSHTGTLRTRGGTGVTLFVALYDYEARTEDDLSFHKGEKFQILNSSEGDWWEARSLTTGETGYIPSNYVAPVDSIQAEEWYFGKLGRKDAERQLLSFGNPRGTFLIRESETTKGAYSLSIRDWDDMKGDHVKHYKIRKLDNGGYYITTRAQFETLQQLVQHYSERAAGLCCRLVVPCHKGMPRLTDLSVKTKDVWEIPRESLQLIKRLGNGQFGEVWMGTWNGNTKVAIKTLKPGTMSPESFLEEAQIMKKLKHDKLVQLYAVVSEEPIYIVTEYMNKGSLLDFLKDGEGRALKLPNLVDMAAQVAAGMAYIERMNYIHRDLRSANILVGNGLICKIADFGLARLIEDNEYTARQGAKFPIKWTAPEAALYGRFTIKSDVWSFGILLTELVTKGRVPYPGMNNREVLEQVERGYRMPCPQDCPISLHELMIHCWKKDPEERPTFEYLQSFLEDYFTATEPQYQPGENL
# [18] = target: Tyrosine-protein kinase Fgr (Homo sapiens) (UniProt P09769); assay: Inhibition of FGR (unknown origin) at 1 uM
# Tyrosine-protein kinase Fgr (Homo sapiens), sequence (P09769 2-529 limits assumed): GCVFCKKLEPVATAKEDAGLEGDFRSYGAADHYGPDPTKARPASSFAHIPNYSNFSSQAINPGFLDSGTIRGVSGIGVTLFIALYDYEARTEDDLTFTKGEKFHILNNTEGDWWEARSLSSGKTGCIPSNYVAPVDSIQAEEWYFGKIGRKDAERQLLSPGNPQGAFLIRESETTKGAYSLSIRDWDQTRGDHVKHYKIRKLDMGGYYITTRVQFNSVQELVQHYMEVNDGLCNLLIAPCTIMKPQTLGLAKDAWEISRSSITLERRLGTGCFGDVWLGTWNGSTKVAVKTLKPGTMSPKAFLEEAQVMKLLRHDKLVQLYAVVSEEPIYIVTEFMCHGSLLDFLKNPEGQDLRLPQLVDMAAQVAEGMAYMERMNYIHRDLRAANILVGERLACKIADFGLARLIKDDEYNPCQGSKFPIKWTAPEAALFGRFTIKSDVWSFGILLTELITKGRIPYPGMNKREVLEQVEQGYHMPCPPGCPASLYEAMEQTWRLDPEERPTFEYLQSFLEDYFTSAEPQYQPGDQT
# [19] = target: Tyrosine-protein kinase FRK (Homo sapiens) (UniProt P42685); assay: Inhibition of FRK (unknown origin) at 1 uM
# [20] = target: Tyrosine-protein kinase Blk (Homo sapiens) (UniProt P51451); assay: Inhibition of BLK (unknown origin) at 1 uM
# Tyrosine-protein kinase Blk (Homo sapiens), sequence (P51451 2-505 limits assumed): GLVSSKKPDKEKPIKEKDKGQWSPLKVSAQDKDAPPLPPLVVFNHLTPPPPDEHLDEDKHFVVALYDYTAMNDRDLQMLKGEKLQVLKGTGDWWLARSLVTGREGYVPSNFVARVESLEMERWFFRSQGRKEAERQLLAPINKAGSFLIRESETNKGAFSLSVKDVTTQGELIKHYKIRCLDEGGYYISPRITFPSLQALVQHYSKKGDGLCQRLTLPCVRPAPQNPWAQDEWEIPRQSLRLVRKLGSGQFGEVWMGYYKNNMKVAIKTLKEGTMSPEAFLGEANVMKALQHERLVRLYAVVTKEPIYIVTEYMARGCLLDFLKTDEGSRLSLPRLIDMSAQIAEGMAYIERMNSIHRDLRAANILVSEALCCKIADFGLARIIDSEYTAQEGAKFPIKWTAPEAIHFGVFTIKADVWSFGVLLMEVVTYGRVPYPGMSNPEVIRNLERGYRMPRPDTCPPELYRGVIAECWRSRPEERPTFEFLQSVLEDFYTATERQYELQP
# [21] = Permeability of the compound by PAMPA at pH 7.4; type: ADME; conditions: read-out: permeability
# [22] = Permeability of the compound by PAMPA at pH 5; type: ADME; conditions: read-out: permeability
# [23] = Aqueous solubility of the compound at pH 7.4; type: physicochemical
# Cytochrome P450 3A4 = Cytochrome P450 3A4 (Homo sapiens, UniProt P08684); assay: Inhibition of CYP3A4 (unknown origin); type: ADME
# Cytochrome P450 2D6 = Cytochrome P450 2D6 (Homo sapiens, UniProt P10635); assay: Inhibition of CYP2D6 (unknown origin); type: ADME
# Cytochrome P450 2D6, sequence (P10635 whole entry): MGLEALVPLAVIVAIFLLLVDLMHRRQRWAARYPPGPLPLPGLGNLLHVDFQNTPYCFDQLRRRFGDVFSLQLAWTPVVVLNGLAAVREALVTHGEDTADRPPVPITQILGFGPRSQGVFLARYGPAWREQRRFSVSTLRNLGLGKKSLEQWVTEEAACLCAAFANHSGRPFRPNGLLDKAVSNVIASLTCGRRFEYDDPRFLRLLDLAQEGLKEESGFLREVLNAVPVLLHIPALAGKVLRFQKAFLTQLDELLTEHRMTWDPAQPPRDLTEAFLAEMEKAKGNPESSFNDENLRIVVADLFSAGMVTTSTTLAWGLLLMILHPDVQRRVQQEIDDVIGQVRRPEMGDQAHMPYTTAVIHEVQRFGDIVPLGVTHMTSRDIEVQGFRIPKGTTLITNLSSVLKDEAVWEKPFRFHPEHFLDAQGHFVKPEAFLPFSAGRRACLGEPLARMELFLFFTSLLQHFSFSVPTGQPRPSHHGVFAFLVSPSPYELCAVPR
# Cytochrome P450 2C9 = Cytochrome P450 2C9 (Homo sapiens, UniProt P11712); assay: Inhibition of CYP2C9 (unknown origin); type: ADME
# Cytochrome P450 1A2 = target: T4, Cytochrome P450 1A2 (Homo sapiens, UniProt P05177); assay: Inhibition of CYP1A2 (unknown origin); type: ADME
# T4 sequence (P05177 whole entry): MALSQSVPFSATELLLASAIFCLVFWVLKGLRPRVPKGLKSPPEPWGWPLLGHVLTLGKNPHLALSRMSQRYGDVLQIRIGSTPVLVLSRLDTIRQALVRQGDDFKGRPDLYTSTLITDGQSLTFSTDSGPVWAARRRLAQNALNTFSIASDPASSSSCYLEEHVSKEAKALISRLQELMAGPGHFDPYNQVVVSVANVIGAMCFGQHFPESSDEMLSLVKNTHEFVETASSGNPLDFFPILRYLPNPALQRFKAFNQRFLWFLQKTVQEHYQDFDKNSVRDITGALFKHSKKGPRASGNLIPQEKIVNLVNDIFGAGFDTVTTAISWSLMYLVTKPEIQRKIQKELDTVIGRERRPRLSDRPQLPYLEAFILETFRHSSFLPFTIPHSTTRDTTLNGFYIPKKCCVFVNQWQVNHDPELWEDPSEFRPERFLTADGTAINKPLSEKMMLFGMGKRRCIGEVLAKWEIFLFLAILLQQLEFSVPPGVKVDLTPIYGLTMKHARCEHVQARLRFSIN
# Activated CDC42 kinase 1 [24] = target: T1, Activated CDC42 kinase 1; conditions: 1 uM
# Target sequence in this assay (Q07912 whole entry, looked up): as the sequence (Q07912 whole entry) above
IC50 (Activated CDC42 kinase 1 [1]) [nM],clearance [2] [mL/min/kg],Vd [3] [L/kg],half-life [4] [h],bioavailability [5] [%],AUC [6] [ng·h/mL],Cmax [7] [µM],Structure (SMILES),also measured
620,–,–,–,–,–,–,c1ccc(-c2oc3ncnc(NC[C@@H]4CCCO4)c3c2-c2ccccc2)cc1,–
–,89,3.3,2.6,105,3940,4.6,CC(O)(c1ccccc1)c1ccc(-c2nc([C@H]3C[C@@](C)(O)C3)n3ccnc(N)c23)cc1 (mixture of isomers),–
20,–,–,–,–,–,–,COC(C)(C)CCn1nc(Nc2c(C)cccc2C)c2cnc(Nc3ccc(OCCN4CCCC4)c(F)c3)nc21,–
–,62,1.7,4.9,87,4680,11.2,C[C@]1(O)C[C@@H](c2nc(-c3ccc(Oc4ccccc4)cc3)c3c(N)nccn32)C1,–
–,–,–,–,–,–,–,Nc1nccn2c(C3CCC3)nc(-c3ccc(C(O)c4ccccc4)cc3)c12 (stereo not given),IC50 (Activated CDC42 kinase 1 [8]): 280 nM
10,–,–,–,–,–,–,c1ccc(-c2c(-c3ccc(OCCN4CCCC4)cc3)[nH]c3ncnc(NCC4SCCS4)c23)cc1,–
–,63,1.7,4.3,–,8540,5,C[C@]1(O)C[C@@H](c2nc(-c3ccc(C(F)(F)c4ccccc4)cc3)c3c(N)nccn32)C1,F (Mus musculus): 160%
–,135,9,5.5,50,1240,0.9,Nc1nccn2c(C3CCC3)nc(-c3ccc(Oc4ccccc4)cc3)c12,–
–,–,–,–,–,–,–,Nc1nccn2c(C3CCC3)nc(-c3ccn(Cc4ccccc4)c(=O)c3)c12,IC50 (Activated CDC42 kinase 1 [8]): > 10000 nM
–,39,1.8,3.8,98,8480,5.9,COc1cc(Oc2ccccc2)ccc1-c1nc([C@H]2C[C@@](C)(O)C2)n2ccnc(N)c12,inhibition [9]: > 80%; inhibition [10]: > 80%; inhibition [11]: > 80%; inhibition [12]: > 80%; inhibition [13]: > 80%; inhibition [14]: > 80%; inhibition [15]: > 80%; inhibition [16]: > 80%; inhibition [17]: > 80%; inhibition [18]: > 80%; inhibition [19]: > 80%; inhibition [20]: > 80%; Papp [21]: 591 ×10⁻⁶ cm/s; Papp [22]: 280 ×10⁻⁶ cm/s; solubility [23]: > 100 µM; IC50 (Cytochrome P450 3A4): > 20000 nM; IC50 (Cytochrome P450 2D6): > 20000 nM; IC50 (Cytochrome P450 2C9): > 20000 nM; IC50 (Cytochrome P450 1A2): > 20000 nM; inhibition (Activated CDC42 kinase 1 [24]): 100%
